{
  "source": "patent US20080026996A1",
  "about": "“Selective Vpac2 Receptor Reptide Agonists” (ELI LILLY AND COMPANY, priority 2004, published 2008)",
  "key": {"[1]": {"biological_target": "T1, rat PAC1 receptor (Rattus norvegicus, UniProt P32215)", "T1 construct": "expressed in transfected cells; host or cells: CHO cells, crude membranes", "T1 sequence (P32215 20-523)": "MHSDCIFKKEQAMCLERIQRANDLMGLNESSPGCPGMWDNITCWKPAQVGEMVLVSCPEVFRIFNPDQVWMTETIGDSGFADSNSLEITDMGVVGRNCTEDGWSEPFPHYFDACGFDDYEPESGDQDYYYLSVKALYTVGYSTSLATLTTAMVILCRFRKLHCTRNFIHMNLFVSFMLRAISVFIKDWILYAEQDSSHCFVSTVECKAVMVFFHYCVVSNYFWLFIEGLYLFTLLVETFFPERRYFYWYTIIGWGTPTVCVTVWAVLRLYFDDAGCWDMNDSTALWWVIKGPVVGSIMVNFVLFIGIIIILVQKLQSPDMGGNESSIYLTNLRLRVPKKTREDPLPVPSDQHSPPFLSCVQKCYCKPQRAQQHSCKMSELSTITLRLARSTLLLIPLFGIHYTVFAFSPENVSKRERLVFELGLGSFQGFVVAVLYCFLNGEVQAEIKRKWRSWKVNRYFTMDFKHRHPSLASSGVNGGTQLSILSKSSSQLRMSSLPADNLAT", "assay": "Adenylate cyclase assay on recombinant rat PAC1 receptor expressed in CHO cells", "assay_type": "biochemical", "experimental": "All studies are performed on crude membranes prepared from three different cell cultures expressing the different recombinant receptors, using methodology that is known in the literature. Duplicate values are obtained for each assay."}, "[2]": {"test_system": "conscious Wistar rats", "assay": "Oral glucose tolerance test (OGTT)", "assay_type": "in vivo, rat", "conditions": "for Effects on glucose, AUC(0-135 min) / Effects on insulin, AUC(0-75 min): OGTT (15 min)", "method": "Oral Glucose Tolerance Test (OGTT):\nThe effect of a selective VPAC2 receptor peptide agonist (P31) on plasma insulin and glucose is evaluated during OGTT in conscious Wistar rats. The maximal dose of agonist is 10 μg/kg. Since the peptide is given intravenously and has a very short half-life, a delay between glucose and compound administrations is applied."}},
  "note": "Where no end group is shown, it is not given here. The star is where a group is joined. Hexanoyl = CCCCCC(=O)*",
  "data": [
    {"substance": "H-MHSDAVFTDNYTRLRKQVAAKKYLQSIKNKRYGGPSSGAPPPS [Agonist P104]", "values": [
      {"measurement": "potency ratio compared to PACAP-27", "setting": "[1]", "value": "> 1000"}
    ]},
    {"substance": "Hexanoyl-HSDAVFTDNYTRLRKQVAAKKYLQSIKNKRYGGPSSGAPPPS [Agonist P31]", "values": [
      {"measurement": "Effects on glucose, AUC(0-135 min)", "setting": "[2]; #1, 10 μg/kg iv", "value": "−22% AUC(0-135 min)"},
      {"measurement": "Effects on insulin, AUC(0-75 min)", "setting": "[2]; #1, 10 μg/kg iv", "value": "+71% AUC(0-75 min)"},
      {"measurement": "Effects on glucose, AUC(0-135 min)", "setting": "[2]; #2, 0.5 μg/kg iv", "value": "−5% AUC(0-135 min)"},
      {"measurement": "Effects on insulin, AUC(0-75 min)", "setting": "[2]; #2, 0.5 μg/kg iv", "value": "+16% AUC(0-75 min)"},
      {"measurement": "Effects on glucose, AUC(0-135 min)", "setting": "[2]; #2, 10 μg/kg iv", "value": "−2% AUC(0-135 min)"},
      {"measurement": "Effects on insulin, AUC(0-75 min)", "setting": "[2]; #2, 10 μg/kg iv", "value": "+17% AUC(0-75 min)"},
      {"measurement": "Effects on insulin, AUC(0-90 min)", "setting": "[2]; OGTT (30 min), 10 μg/kg iv", "value": "+85% AUC(0-90 min)"},
      {"measurement": "Effects on glucose, AUC(0-150 min)", "setting": "[2]; OGTT (30 min), 10 μg/kg iv, (NS)", "value": "−1% AUC(0-150 min)"}
    ]}
  ]
}
